In the supplement of paper PMC10307832:

Tests used:
Experiment in all cases: relative viability (nuclei count vs DMSO), 5 days (fraction); higher = more cells survive
NCI-H2228 = test system: NCI-H2228
Procedure, shortened: (§1)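 Lung cancer cell lines in 1536-well plates were dosed by pin tool the day after seeding, either with one drug alone or with a fixed anchor-drug dose plus five library-drug doses (not always all listed) in √10 steps. After 5 days, cells were fixed and their nuclei stained in one step (final 0.05% Triton X-100, 1% formaldehyde, 1 ug/ml Hoechst), then counted on 4× images. Relative viability is the nuclei count in treated wells divided by that in vehicle wells. Values are medians of duplicate plates.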

NCI-H1993 = test system: NCI-H1993
Procedure, shortened: as §1

PC-3 [JPC-3] = test system: PC-3 [JPC-3]
Procedure, shortened: as §1

HOP-62 = test system: HOP-62
Procedure, shortened: as §1

LU99A = test system: LU99A
Procedure, shortened: as §1

COR-L23 = test system: COR-L23
Procedure, shortened: as §1

NCI-H596 = test system: NCI-H596
Procedure, shortened: as §1

HARA = test system: HARA
Procedure, shortened: as §1

NCI-H1792 = test system: NCI-H1792
Procedure, shortened: as §1

A-427 = test system: A-427
Procedure, shortened: as §1

NCI-H2009 = test system: NCI-H2009
Procedure, shortened: as §1

NCI-H727 = test system: NCI-H727
Procedure, shortened: as §1

SK-MES-1 = test system: SK-MES-1
Procedure, shortened: as §1

NCI-H2170 = test system: NCI-H2170
Procedure, shortened: as §1

SW 1573 = test system: SW 1573
Procedure, shortened: as §1

NCI-H1944 = test system: NCI-H1944
Procedure, shortened: as §1

NCI-H3122 = test system: NCI-H3122
Procedure, shortened: as §1

EMC-BAC-2 = test system: EMC-BAC-2
Procedure, shortened: as §1

NCI-H1793 = test system: NCI-H1793
Procedure, shortened: as §1

LK-2 = test system: LK-2
Procedure, shortened: as §1

LXF-289 = test system: LXF-289
Procedure, shortened: as §1

SK-LU-1 = test system: SK-LU-1
Procedure, shortened: as §1

Work on `C[C@@H]1CN(CC(=O)Nc2ccc3c(c2)Cc2cccc(-c4cc(=O)cc(N5CCOCC5)o4)c2S3)C[C@H](C)O1` + CC1(C)CCC(c2ccc(Cl)cc2)=C(CN2CCN(c3ccc(C(=O)NS(=O)(=O)c4ccc(N[C@H](CCN5CCOCC5)CSc5ccccc5)c(S(=O)(=O)C(F)(F)F)c4)cc3)CC2)C1 [Navitoclax] (partner 0.5 µM) yielded a relative viability (NCI-H2228; first compound 0.04 µM) of 1.02, a relative viability (NCI-H2228; first compound 0.1265 µM) of 1.11 and a relative viability (NCI-H2228; first compound 0.4 µM) of 0.639. The relative viability (NCI-H2228; first compound 4 µM) was 0.753, the relative viability (NCI-H1993; first compound 0.04 µM) was 0.933 and the relative viability (NCI-H1993; first compound 0.1265 µM) was 0.868. For the same compound, the relative viability (NCI-H1993; first compound 0.4 µM) was 0.644, the relative viability (NCI-H1993; first compound 4 µM) was 0.865 and the relative viability (PC-3 [JPC-3]; first compound 0.04 µM) was 0.875. The relative viability (PC-3 [JPC-3]; first compound 0.1265 µM) was 0.795, the relative viability (PC-3 [JPC-3]; first compound 0.4 µM) was 0.836 and the relative viability (PC-3 [JPC-3]; first compound 4 µM) was 0.835. It also gave a relative viability (HOP-62; first compound 0.04 µM) of 0.879, a relative viability (HOP-62; first compound 0.1265 µM) of 0.979 and a relative viability (HOP-62; first compound 0.4 µM) of 1.14. The relative viability (HOP-62; first compound 4 µM) was 1.01, the relative viability (LU99A; first compound 0.04 µM) was 0.856 and the relative viability (LU99A; first compound 0.1265 µM) was 0.758. For the same compound, the relative viability (LU99A; first compound 0.4 µM) was 0.926, the relative viability (LU99A; first compound 4 µM) was 0.821 and the relative viability (COR-L23; first compound 0.04 µM) was 1.25. It also gave a relative viability (COR-L23; first compound 0.1265 µM) of 0.985, a relative viability (COR-L23; first compound 0.4 µM) of 1.17 and a relative viability (COR-L23; first compound 4 µM) of 0.962. It also gave a relative viability (NCI-H596; first compound 0.04 µM) of 0.958, a relative viability (NCI-H596; first compound 0.1265 µM) of 0.994 and a relative viability (NCI-H596; first compound 0.4 µM) of 0.934. The relative viability (NCI-H596; first compound 4 µM) was 0.992, the relative viability (HARA; first compound 0.04 µM) was 1.2 and the relative viability (HARA; first compound 0.1265 µM) was 1.12. For the same compound, the relative viability (HARA; first compound 0.4 µM) was 1.21, the relative viability (HARA; first compound 4 µM) was 1.14 and the relative viability (NCI-H1792; first compound 0.04 µM) was 0.593. For the same compound, the relative viability (NCI-H1792; first compound 0.1265 µM) was 0.597, the relative viability (NCI-H1792; first compound 0.4 µM) was 0.632 and the relative viability (NCI-H1792; first compound 4 µM) was 0.597. The relative viability (A-427; first compound 0.04 µM) was 0.988, the relative viability (A-427; first compound 0.1265 µM) was 0.982 and the relative viability (A-427; first compound 0.4 µM) was 0.983. The relative viability (A-427; first compound 4 µM) was 0.967, the relative viability (NCI-H2009; first compound 0.04 µM) was 1.17 and the relative viability (NCI-H2009; first compound 0.1265 µM) was 1.1. For the same compound, the relative viability (NCI-H2009; first compound 0.4 µM) was 1.15, the relative viability (NCI-H2009; first compound 4 µM) was 0.915 and the relative viability (NCI-H727; first compound 0.04 µM) was 0.482. It also gave a relative viability (NCI-H727; first compound 0.1265 µM) of 0.494, a relative viability (NCI-H727; first compound 0.4 µM) of 0.412 and a relative viability (NCI-H727; first compound 4 µM) of 0.381. The relative viability (SK-MES-1; first compound 0.04 µM) was 1.37, the relative viability (SK-MES-1; first compound 0.1265 µM) was 1.16 and the relative viability (SK-MES-1; first compound 0.4 µM) was 1.1. For the same compound, the relative viability (SK-MES-1; first compound 4 µM) was 1.1, the relative viability (NCI-H2170; first compound 0.1265 µM) was 0.617 and the relative viability (NCI-H2170; first compound 0.4 µM) was 0.471. For the same compound, the relative viability (NCI-H2170; first compound 4 µM) was 0.475, the relative viability (SW 1573; first compound 0.04 µM) was 0.979 and the relative viability (SW 1573; first compound 0.1265 µM) was 1.05. The relative viability (SW 1573; first compound 0.4 µM) was 0.846, the relative viability (SW 1573; first compound 4 µM) was 0.842 and the relative viability (NCI-H1944; first compound 0.1265 µM) was 1.02. It also gave a relative viability (NCI-H1944; first compound 0.4 µM) of 1.11, a relative viability (NCI-H1944; first compound 4 µM) of 1.06 and a relative viability (NCI-H3122; first compound 0.04 µM) of 1.05. It also gave a relative viability (NCI-H3122; first compound 0.1265 µM) of 1.03, a relative viability (NCI-H3122; first compound 0.4 µM) of 0.965 and a relative viability (NCI-H3122; first compound 4 µM) of 0.95. It also gave a relative viability (EMC-BAC-2; first compound 0.04 µM) of 1.16, a relative viability (EMC-BAC-2; first compound 0.1265 µM) of 1.12 and a relative viability (EMC-BAC-2; first compound 0.4 µM) of 1.17. For the same compound, the relative viability (EMC-BAC-2; first compound 4 µM) was 1.09, the relative viability (NCI-H1793; first compound 0.04 µM) was 0.495 and the relative viability (NCI-H1793; first compound 0.1265 µM) was 0.341. It also gave a relative viability (NCI-H1793; first compound 0.4 µM) of 0.322, a relative viability (NCI-H1793; first compound 4 µM) of 0.377 and a relative viability (LK-2; first compound 0.1265 µM) of 0.83. For the same compound, the relative viability (LK-2; first compound 0.4 µM) was 0.831, the relative viability (LK-2; first compound 4 µM) was 1.02 and the relative viability (LXF-289; first compound 0.04 µM) was 0.941. It also gave a relative viability (LXF-289; first compound 0.1265 µM) of 0.929, a relative viability (LXF-289; first compound 0.4 µM) of 1 and a relative viability (LXF-289; first compound 4 µM) of 0.913. For the same compound, the relative viability (SK-LU-1; first compound 0.04 µM) was 0.761, the relative viability (SK-LU-1; first compound 0.1265 µM) was 0.969 and the relative viability (SK-LU-1; first compound 0.4 µM) was 0.956. For the same compound, the relative viability (SK-LU-1; first compound 4 µM) was 0.637.
